Read-outs that look alike come from different tables or passages of the source.
How the values were obtained:
[1] = target: T1, GST-PLK1 (Homo sapiens, UniProt P53350); assay: GST-Plk kinase activity kinetic assay (phosphorylation of GST-cdc25C); type: biochemical; conditions: for reduction of GST-PLK1 activity: preincubation 0-45 minutes; for Ki: 10-25 μM ATP, 2, 4, 6 μM SCY
T1 construct: made in house
Method: GST-PLK1, and GST-cdc25C were synthesized as described in Roshak et al. (2000), which is herein incorporated by reference. GST-PLK1 and GST-cdc25C were purified to 20% and 60% purity as determined by SDS-PAGE analysis and Coomassie Blue staining. The remaining impurities were determined to be free GST.
Kinase reactions comprised 350 nM GST-cdc25C, 0.5 μCi [^33P]-γATP (NEN, Cambridge, Mass.), 10 μM unlabelled ATP (Sigma, St. Louis, Mo.), 20 nM GST-PLK1 in kinase reaction buffer comprising 20 mM HEPES (pH 7.4), 50 mM KCl, 10 mM MgCl2, 1 mM EGTA, 0.5 mM DTT. Enzyme and substrates were diluted individually in kinase buffer and the PLK1 solution was pre-activated by incubating at 37° C. for 1 hour prior to its addition to the assay as described in Roshak et al. (2000).
50 μl reactions were conducted in 96 well polypropylene plates. First, 1 nM to 10 μM SCY dissolved in 100% DMSO was added, followed by the addition of enzyme and substrate to give a final concentration of 4% DMSO. The reactions were initiated by the addition of ATP. The reactions progressed for 60 minutes at 37° C., and were then stopped with 25 mM EDTA and 1 mM unlabeled ATP. The samples were transferred to 96 well 0.45 μm millipore filtration plates (Millipore, Bedford, Mass.), the proteins were precipitated with a 10% TCA, 5% sodium pyrophosphate solution (TCA-NaPP), and the plates were filtered using a Millipore microplate filtration unit (Millipore, Bedford, Mass.). The plates were washed twice with the TCA-NaPP solution, twice with 75 mM phosphoric acid, and twice with PBS. After drying at room temperature, scintillation fluid was added to the plate, and [^33P]-γATP incorporation was measured on a Packard Top-Count.
Analysis by autoradiography was performed as described in Roshak et al. (2000). Briefly, GST-PLK1 (20 nM/assay), […], 1 μCi [^32P]-γATP, and 350 nM GST-cdc25C were incubated in microcentrifuge tubes (50 μl/assay) for 60 minutes at 37° C. in the presence of 1 to 10 μM SCY and 10 μM hymenialdisine. The reactions were terminated with 25 mM EDTA, separated by SDS-PAGE and GST-cdc25C phosphorylation was visualized using Imagequest (Molecular Dynamics, Sunnyvale, Calif.). 10 μM hymenialdisine served as a positive control for each assay described above.
To determine whether SCY was acting as and ATP analogue, ATP competition assays were conducted as described above in the presence of increasing concentrations, 10, 15, 20, and 25 μM, of unlabeled ATP and three concentrations of SCY, 2, 4, and 6 μM SCY. The results were plotted using the Grafit statistical analysis program.
To ascertain if inhibition of GST-PLK1, activity by SCY is time dependent, 3 μM and 10 μM SCY were pre-incubated with both enzyme and substrate for 0, 15, 30, and 45 minutes at room temperature. At the end of the pre-incubation period, ATP was added to initiate the activity assay. […] GST-PLK1, activity was reduced by about 58% and about 93% after preincubation with 3 μM and 10 μM SCY, respectively, which is consistent with the levels shown in FIG. 3.

[2] = test system: PMA-induced mouse ear skin hyperplasia; assay: Tissue hyperplasia assay (PMA-induced mouse ear skin hyperplasia); type: in vivo
Method: To determine the in vivo efficacy of syctonemin, PMA-induced mouse ear skin hyperplasia model was used. As one cause of tissue hyperplasia is chronic inflammation, mouse ear skin was exposed to multiple PMA applications to simulate chronic inflammation. Specifically, 0.125, 0.25, 0.5, or 1.0 mg of scytonemin in 20 μl of 20% DMSO and 80% acetone was applied to the inner pinnae of the left ears of male, Swiss Webster mice (Taconic Farms, Germantown, N.Y.) at 0, 5, 24, 29, 48, and 53 hours. The inner pinnae of the right ears received only 10 μl of vehicle and 10 μl of acetone at 0, 5, 24, 29, 48, and 53 hours. At 0.5 and 48.5 hours, 4 μg/ear PMA (Sigma, St. Louis, Mo.) in 10 μl acetone was applied to the inner pinnae the left ears and 10 μl acetone was applied to each right ear. One hour after the last scytonemin application (54 hours) each mouse was injected with 0.6 ml of a solution containing IUdR (2 μCi-I^125/mouse) and 26 μg FUdR. This IUdR/FUdR solution was made up in RPMI 1640 media. At 72 hours, the mice were euthanized via CO2 inhalation, the ears were excised and soaked individually in a 70% EtOH solution overnight.
At 96 hours, IUdR incorporation was then measured using a Beckman Gamma counter, Model 5500B. […] IUdR incorporated was calculated by the following equation: % IUdR incorporation=(Count of Ear−Background)/(Total Count−Background). The percent of control of IUdR incorporation was calculated by the following equation: % Control=(% IUdR Uptake in Sample Ear)/(% IUdR Uptake PMA−Treated Control Ear)×100.
Alternatively, the cyrosections of the mouse ears were stained and histologically analyzed. […]
At 72 hours, the mice were euthanized and the ears were immediately embedded in a suitable hypoxy resin such as OCT media and snap frozen using melting isopentane using conventional methods. […] The sections were fixed and stained with hematoxlin and then analyzed under a microscope with a 10× magnification.

[3] = target: T2, GST-CHK1 (Homo sapiens, UniProt O14757); assay: GST-Chk1 activity assay; type: biochemical; conditions: 10 μM cold ATP, GST-cdc25C substrate
T2 construct: made in house
T2 sequence (O14757 1-476): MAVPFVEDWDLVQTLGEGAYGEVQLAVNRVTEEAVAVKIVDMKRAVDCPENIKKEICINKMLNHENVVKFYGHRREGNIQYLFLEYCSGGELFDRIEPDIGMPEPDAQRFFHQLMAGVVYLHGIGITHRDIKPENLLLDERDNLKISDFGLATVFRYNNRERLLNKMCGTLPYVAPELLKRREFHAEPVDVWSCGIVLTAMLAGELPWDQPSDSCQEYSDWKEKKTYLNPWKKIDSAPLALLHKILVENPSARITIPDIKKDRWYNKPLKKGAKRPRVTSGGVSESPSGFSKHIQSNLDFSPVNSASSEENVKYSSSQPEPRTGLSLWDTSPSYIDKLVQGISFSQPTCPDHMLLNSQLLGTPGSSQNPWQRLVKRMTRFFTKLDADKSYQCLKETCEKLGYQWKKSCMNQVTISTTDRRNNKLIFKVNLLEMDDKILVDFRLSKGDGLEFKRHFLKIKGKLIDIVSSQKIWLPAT
Method: To determine the effect of SCY on GST-Chk1 activity, the following assay was conducted. GST-Chk1 were expressed and purified using a method previously described in Jackson et al. (2000) Can. Res. 60:566-572, which is herein incorporated by reference. GST-Chk1 was purified to […] purity as determined via SDS-PAGE analysis. The remaining 30% was attributed to free GST. Flashplates were coated with 1 μg GST-cdc25C and 100 μM ATP at 4° C. The plates were washed twice with PBS, then 0.5 μCi [^33P]-γATP, 10 μM cold ATP, and 2 μg GST-CHK1, were added to the wells in kinase reaction buffer comprising 20 mM HEPES (pH 7.4), 50 mM KCl, 10 mM MgCl2, 1 mM EGTA, and 0.5 mM DTT. Activity was measured in the presence of scytonemin (SCY) in 100% DMSO yielding a 4% DMSO final concentration. Reactions were initiated by the addition of the enzyme, incubated at 37° C. for 30 minutes, and stopped by washing the plates five times with PBS. The amount of [^33P]-γATP incorporation was measured on a Packard Top-count.

[4] = test system: PMA-induced mouse ear edema; assay: PMA-induced mouse ear edema assay; type: in vivo; conditions: topical application
Method: The efficacy of a scytoneman compound as an anti-inflammatory agent may be established by the following assay. The scytoneman compound is topically applied in acetone to the inside pinnae of the ears of mice in a solution comprising an irritant such as the edema-causing irritant, Phorbol 12-myristate 13-acetate (PMA). Specifically, 2 μg/ear of PMA alone or in combination with 50 μg/ear of the test compound, scytonemin, was applied to the left ears (5 mice per treatment group) and acetone was applied to all right ears. After 3 hours, 20 minutes incubation, the mice were sacrificed, the ears removed and bores taken and weighed. Edema was measured by subtracting the weight of the right ear (acetone control) from the weight of the left ear (treated). Results were recorded as % decrease (inhibition) or % increase (potentiation) in edema relative to the PMA control group edema.

T1 sequence (P53350 whole entry): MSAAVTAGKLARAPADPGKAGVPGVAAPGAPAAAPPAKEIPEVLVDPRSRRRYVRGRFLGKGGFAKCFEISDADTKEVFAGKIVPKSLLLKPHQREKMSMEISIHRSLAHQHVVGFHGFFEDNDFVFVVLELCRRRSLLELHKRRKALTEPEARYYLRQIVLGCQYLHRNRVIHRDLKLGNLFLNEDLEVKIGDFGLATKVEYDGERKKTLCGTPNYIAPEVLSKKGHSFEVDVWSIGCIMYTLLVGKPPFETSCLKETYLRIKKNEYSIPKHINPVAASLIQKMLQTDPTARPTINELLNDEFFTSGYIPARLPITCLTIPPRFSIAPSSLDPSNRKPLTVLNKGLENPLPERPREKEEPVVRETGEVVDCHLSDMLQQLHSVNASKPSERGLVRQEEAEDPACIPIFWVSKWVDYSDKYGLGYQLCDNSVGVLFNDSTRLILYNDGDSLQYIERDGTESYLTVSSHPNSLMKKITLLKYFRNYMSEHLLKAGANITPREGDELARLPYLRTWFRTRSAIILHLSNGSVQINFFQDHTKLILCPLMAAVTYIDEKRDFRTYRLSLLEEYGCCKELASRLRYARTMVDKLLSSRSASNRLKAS

Question: Which results are given for scytonemin?
Answer: reduction of GST-PLK1 activity ([1]; 3 μM SCY): about 58%; time dependence of GST-PLK1 inhibition ([1]; 3 μM and 10 μM, preincubation 0, 15, 30, 45 minutes): not time dependent; reduction of GST-PLK1 activity ([1]; 10 μM SCY): about 93%; IC50 ([1]; 10 μM unlabelled ATP, 60 minutes at 37° C., IC50±S.E.M., read-out: IC50 for inhibition of GST-PLK1 phosphorylation of GST-cdc25C): 1.95 ± 0.07 µM; Ki ([1]; ATP competition, read-out: Ki when fitted as an uncompetitive inhibitor): 2.3 ± 1.9 µM; Ki ([1]; ATP competition, read-out: Ki when fitting the data as a competitive inhibitor): 3 ± 1.9 µM; mechanism of inhibition of GST-PLK1 ([1]; ATP competition, double-reciprocal plot): mixed inhibitor; GST-cdc25C phosphorylation by GST-PLK1 (phosphorimage) ([1]; in the presence of 10 μM SCY): virtually no phosphorylated GST-cdc25C detectable; thickness of the epidermal layer ([2]; PMA-treated mouse ears): reduced the thickness of the epidermal layer; tissue hyperplasia (histology, hematoxlin) ([2]; scytonemin 1 mg/ear, dexamethasone 0.15 mg/ear, PMA 4 μg/ear): to about normal; ED50 skin hyperplasia (IUdR incorporation) ([2]; topical): about 0.270±0.11 mg/ear; IC50 [3]: ~1.4 µM; ED50 PMA-induced mouse ear edema and tissue myeloperoxidase activity [4]: about 10.9±5 μg per ear

Reference: patent publication US6495588B2, “Scytonemin and methods of using thereof” (The Regents of the University of California, priority 2000, dated 2002)
